Marks after values point to notes of the source that are not given here.
What was measured:
HeLa cells = experiment: Cell cycle analysis with HeLa cells; type: cell-based, human; conditions: 18 hr
Protocol: HeLa cells are harvested by trypsinization, washed, counted and distributed to wells of 12-well plates at 125,000 cells per well in 2 mL medium. Cells are cultured overnight. […] Cells are continued in culture for 18 hr after compound addition, then cells in each well are harvested (taking care to recover both adherent and non-adherent cells) and processed using the CycleTEST PLUS kit (Becton Dickinson Immunocytometry Systems, San Jose, Calif.). Flow cytometry is done with a FACSort instrument (Becton Dickinson).
This procedure measures the percentages of cells in a population that are in the G1, S, and G2/M phases of the cell cycle. It utilizes staining of cell nuclei with propidium iodide and analysis by flow cytometry.

LOX Human Melanoma = experiment: Human tumor xenograft test, LOX; type: in vivo, athymic mice; conditions: for tumor growth inhibition (activity call): LOX melanoma; for T/C on day 0 / T/C on day 7 / T/C on day 13: LOX, days 1, 5, 9, 13
Protocol: The ability of compounds of this invention to inhibit tumor growth in animals is studied in the athymic mouse xenograft standard pharmacological test. Female nu/nu mice in an outbred albino background are obtained from Charles River Laboratories (Wilmington, Mass.). Animals are injected subcutaneously on the flank with the desired tumor cell suspension. Several days later, mice with tumors of approximately 150 mm^3 are selected from those injected (staged) and randomly distributed into groups of 5-10. The day of staging is called day 0. Compounds of the invention, usually formulated in saline (exceptions are noted in tables), are administered to animals by intravenous injection or oral gavage on various schedules starting on day 0 or 1, as noted in the tables. The control group in each experiment is dosed with vehicle on the same schedule. Tumor size is measured every 3-7 days with calipers in two orthogonal dimensions, and tumor volume is calculated from the formula volume=[(length×width^2)/2].
Tumor/Control (T/C) is obtained by dividing the mean tumor volume of the treated group by the mean tumor volume of the control group on each measurement day. A treatment dose is defined as active if it produced a statistically significant T/C of 0.50 or less. A p value≦0.05, determined by one-side Student's t-test, is required for statistical significance. A treatment dose is defined as toxic if more than 10% of the animals died from a compound-related toxicity.

SMILES: CNCCCOc1cc(F)c(-c2c(Cl)nc3ncnn3c2NCC(F)(F)F)c(F)c1.Cl [Example 3a, 5-Chloro-6-{2,6-difluoro-4-[3-(methylamino)propoxy]phenyl}-N-(2,2,2-trifluoroethyl)[1,2,4]triazolo[1,5-a]pyrimidin-7-amine hydrogen chloride Salt]
- Percent in Cell Cycle Phase >4N (HeLa cells; 20 nM): 1%
- Percent in Cell Cycle Phase Apop (HeLa cells; 20 nM): 29%
- Percent in Cell Cycle Phase G1 (HeLa cells; 20 nM): 42%
- Percent in Cell Cycle Phase G2/M (HeLa cells; 20 nM): 16%
- Percent in Cell Cycle Phase S (HeLa cells; 20 nM): 12%
- Percent in Cell Cycle Phase >4N (HeLa cells; 30 nM): 2%
- Percent in Cell Cycle Phase Apop (HeLa cells; 30 nM): 55%
- Percent in Cell Cycle Phase G1 (HeLa cells; 30 nM): 11%
- Percent in Cell Cycle Phase G2/M (HeLa cells; 30 nM): 21%
- Percent in Cell Cycle Phase S (HeLa cells; 30 nM): 11%
- Percent in Cell Cycle Phase >4N (HeLa cells; 40 nM): 3%
- Percent in Cell Cycle Phase Apop (HeLa cells; 40 nM): 50%
- Percent in Cell Cycle Phase G1 (HeLa cells; 40 nM): 6%
- Percent in Cell Cycle Phase G2/M (HeLa cells; 40 nM): 31%
- Percent in Cell Cycle Phase S (HeLa cells; 40 nM): 10%
- Percent in Cell Cycle Phase >4N (HeLa cells; 50 nM): 3%
- Percent in Cell Cycle Phase Apop (HeLa cells; 50 nM): 32%
- Percent in Cell Cycle Phase G1 (HeLa cells; 50 nM): 5%
- Percent in Cell Cycle Phase G2/M (HeLa cells; 50 nM): 52%
- Percent in Cell Cycle Phase S (HeLa cells; 50 nM): 8%
- Percent in Cell Cycle Phase >4N (HeLa cells; 60 nM): 4%
- Percent in Cell Cycle Phase Apop (HeLa cells; 60 nM): 25%
- Percent in Cell Cycle Phase G1 (HeLa cells; 60 nM): 4%
- Percent in Cell Cycle Phase G2/M (HeLa cells; 60 nM): 58%
- Percent in Cell Cycle Phase S (HeLa cells; 60 nM): 9%
- Percent in Cell Cycle Phase >4N (HeLa cells; 70 nM): 4%
- Percent in Cell Cycle Phase Apop (HeLa cells; 70 nM): 21%
- Percent in Cell Cycle Phase G1 (HeLa cells; 70 nM): 5%
- Percent in Cell Cycle Phase G2/M (HeLa cells; 70 nM): 61%
- Percent in Cell Cycle Phase S (HeLa cells; 70 nM): 9%
- Percent in Cell Cycle Phase >4N (HeLa cells; 80 nM): 5%
- Percent in Cell Cycle Phase Apop (HeLa cells; 80 nM): 24%
- Percent in Cell Cycle Phase G1 (HeLa cells; 80 nM): 5%
- Percent in Cell Cycle Phase G2/M (HeLa cells; 80 nM): 57%
- Percent in Cell Cycle Phase S (HeLa cells; 80 nM): 11%
- Percent in Cell Cycle Phase >4N (HeLa cells; 90 nM): 4%
- Percent in Cell Cycle Phase Apop (HeLa cells; 90 nM): 23%
- Percent in Cell Cycle Phase G1 (HeLa cells; 90 nM): 5%
- Percent in Cell Cycle Phase G2/M (HeLa cells; 90 nM): 60%
- Percent in Cell Cycle Phase S (HeLa cells; 90 nM): 8%
- Percent in Cell Cycle Phase >4N (HeLa cells; 100 nM): 5%
- Percent in Cell Cycle Phase Apop (HeLa cells; 100 nM): 25%
- Percent in Cell Cycle Phase G1 (HeLa cells; 100 nM): 5%
- Percent in Cell Cycle Phase G2/M (HeLa cells; 100 nM): 55%
- Percent in Cell Cycle Phase S (HeLa cells; 100 nM): 10%
- Percent in Cell Cycle Phase >4N (HeLa cells; 110 nM): 5%
- Percent in Cell Cycle Phase Apop (HeLa cells; 110 nM): 26%
- Percent in Cell Cycle Phase G1 (HeLa cells; 110 nM): 6%
- Percent in Cell Cycle Phase G2/M (HeLa cells; 110 nM): 54%
- Percent in Cell Cycle Phase S (HeLa cells; 110 nM): 10%
- Percent in Cell Cycle Phase >4N (HeLa cells; 120 nM): 5%
- Percent in Cell Cycle Phase Apop (HeLa cells; 120 nM): 30%
- Percent in Cell Cycle Phase G1 (HeLa cells; 120 nM): 6%
- Percent in Cell Cycle Phase G2/M (HeLa cells; 120 nM): 48%
- Percent in Cell Cycle Phase S (HeLa cells; 120 nM): 12%
- tumor growth inhibition (activity call) (LOX Human Melanoma; 1 mg/kg intravenously on days 1, 5, 9, and 13): not at 1 mg/kg
- tumor growth inhibition (activity call) (LOX Human Melanoma; 6 and 3 mg/kg intravenously on days 1, 5, 9, and 13): active
- T/C on day 0 (LOX Human Melanoma; 1 mg/kg IV): 1.00
- T/C on day 7 (LOX Human Melanoma; 1 mg/kg IV): 0.77
- T/C on day 13 (LOX Human Melanoma; 1 mg/kg IV): 0.85
- T/C on day 0 (LOX Human Melanoma; 3 mg/kg IV): 1.00
- T/C on day 7 (LOX Human Melanoma; 3 mg/kg IV): 0.34*
- T/C on day 13 (LOX Human Melanoma; 3 mg/kg IV): 0.38
- T/C on day 0 (LOX Human Melanoma; 6 mg/kg IV): 1.00
- T/C on day 7 (LOX Human Melanoma; 6 mg/kg IV): 0.22**
- T/C on day 13 (LOX Human Melanoma; 6 mg/kg IV): 0.07**

SMILES: CC[C@]1(O)C[C@H]2CN(CCc3c([nH]c4ccccc34)[C@@](C(=O)OC)(c3cc4c(cc3OC)N(C=O)[C@H]3[C@@](O)(C(=O)OC)[C@H](OC(C)=O)[C@]5(CC)C=CCN6CC[C@]43[C@@H]65)C2)C1 [Vincristine, reference compound]
- Percent in Cell Cycle Phase >4N (HeLa cells; 1 nM): 2%
- Percent in Cell Cycle Phase Apop (HeLa cells; 1 nM): 6%
- Percent in Cell Cycle Phase G1 (HeLa cells; 1 nM): 57%
- Percent in Cell Cycle Phase G2/M (HeLa cells; 1 nM): 17%
- Percent in Cell Cycle Phase S (HeLa cells; 1 nM): 18%
- Percent in Cell Cycle Phase >4N (HeLa cells; 2 nM): 2%
- Percent in Cell Cycle Phase Apop (HeLa cells; 2 nM): 8%
- Percent in Cell Cycle Phase G1 (HeLa cells; 2 nM): 55%
- Percent in Cell Cycle Phase G2/M (HeLa cells; 2 nM): 18%
- Percent in Cell Cycle Phase S (HeLa cells; 2 nM): 18%
- Percent in Cell Cycle Phase >4N (HeLa cells; 4 nM): 2%
- Percent in Cell Cycle Phase Apop (HeLa cells; 4 nM): 9%
- Percent in Cell Cycle Phase G1 (HeLa cells; 4 nM): 50%
- Percent in Cell Cycle Phase G2/M (HeLa cells; 4 nM): 23%
- Percent in Cell Cycle Phase S (HeLa cells; 4 nM): 17%
- Percent in Cell Cycle Phase >4N (HeLa cells; 6 nM): 3%
- Percent in Cell Cycle Phase Apop (HeLa cells; 6 nM): 11%
- Percent in Cell Cycle Phase G1 (HeLa cells; 6 nM): 45%
- Percent in Cell Cycle Phase G2/M (HeLa cells; 6 nM): 27%
- Percent in Cell Cycle Phase S (HeLa cells; 6 nM): 15%
- Percent in Cell Cycle Phase >4N (HeLa cells; 8 nM): 3%
- Percent in Cell Cycle Phase Apop (HeLa cells; 8 nM): 12%
- Percent in Cell Cycle Phase G1 (HeLa cells; 8 nM): 40%
- Percent in Cell Cycle Phase G2/M (HeLa cells; 8 nM): 32%
- Percent in Cell Cycle Phase S (HeLa cells; 8 nM): 14%
- Percent in Cell Cycle Phase >4N (HeLa cells; 10 nM): 3%
- Percent in Cell Cycle Phase Apop (HeLa cells; 10 nM): 16%
- Percent in Cell Cycle Phase G1 (HeLa cells; 10 nM): 27%
- Percent in Cell Cycle Phase G2/M (HeLa cells; 10 nM): 41%
- Percent in Cell Cycle Phase S (HeLa cells; 10 nM): 13%
- Percent in Cell Cycle Phase >4N (HeLa cells; 15 nM): 4%
- Percent in Cell Cycle Phase Apop (HeLa cells; 15 nM): 19%
- Percent in Cell Cycle Phase G1 (HeLa cells; 15 nM): 20%
- Percent in Cell Cycle Phase G2/M (HeLa cells; 15 nM): 44%
- Percent in Cell Cycle Phase S (HeLa cells; 15 nM): 14%
- Percent in Cell Cycle Phase >4N (HeLa cells; 20 nM): 4%
- Percent in Cell Cycle Phase Apop (HeLa cells; 20 nM): 18%
- Percent in Cell Cycle Phase G1 (HeLa cells; 20 nM): 15%
- Percent in Cell Cycle Phase G2/M (HeLa cells; 20 nM): 51%
- Percent in Cell Cycle Phase S (HeLa cells; 20 nM): 12%
- Percent in Cell Cycle Phase >4N (HeLa cells; 25 nM): 4%
- Percent in Cell Cycle Phase Apop (HeLa cells; 25 nM): 17%
- Percent in Cell Cycle Phase G1 (HeLa cells; 25 nM): 14%
- Percent in Cell Cycle Phase G2/M (HeLa cells; 25 nM): 52%
- Percent in Cell Cycle Phase S (HeLa cells; 25 nM): 13%
- Percent in Cell Cycle Phase >4N (HeLa cells; 30 nM): 4%
- Percent in Cell Cycle Phase Apop (HeLa cells; 30 nM): 19%
- Percent in Cell Cycle Phase G1 (HeLa cells; 30 nM): 12%
- Percent in Cell Cycle Phase G2/M (HeLa cells; 30 nM): 55%
- Percent in Cell Cycle Phase S (HeLa cells; 30 nM): 11%
- Percent in Cell Cycle Phase >4N (HeLa cells; 40 nM): 4%
- Percent in Cell Cycle Phase Apop (HeLa cells; 40 nM): 18%
- Percent in Cell Cycle Phase G1 (HeLa cells; 40 nM): 8%
- Percent in Cell Cycle Phase G2/M (HeLa cells; 40 nM): 57%
- Percent in Cell Cycle Phase S (HeLa cells; 40 nM): 13%
